Here are results for 33 compounds from patent US6670383B2, “Pyranocoumarin compounds as a novel pharmacophore with anti-TB activity” (priority 2001, dated 2003).

Type in all cases: cell-based
Assay [1] concerns M. tuberculosis H37Ra. The assay is described as follows: colorimetric microdilution broth assay with alamar Blue, initial screen at four log10 dilutions. Particulars: initial screening at 0.128, 1.28, 12.8 and 128 μg/mL. The protocol:
The compounds synthesized above were evaluated for activity against M. tuberculosis H37Ra using a colorimetric microdilution broth assay that incorporated the REDOX indicator alamar Blue, which indicates the growth and viability by the metabolic reduction of the dye from blue to red^18.
In an initial screen, the compounds were assayed in duplicate at four log10 dilutions, with the highest concentration being 128 μg/mL (therefore, tested concentrations were 0.128, 1.28, 12.8, and 128 μg/mL). Each solubilized test compound was diluted in broth medium (Middlebrook 7H9+ADC enrichment+0.2% glycerol) at twice the desired concentration and 0.05 mL of each dilution then added to appropriate wells in duplicate in a 96 well (U-shaped) microtiter plates. A plate format was designed for up to seven (7) compounds per plate. Each plate also included uninoculated drug controls, viability controls, uninoculated medium controls, and positive drug controls. The inoculum for each well consisted of 0.05 mL of culture, standardized as described above to provide an inoculum in each microtiter well of approximately 10^5 CFU/mL. The plates were covered with a lid, placed in polyethylene bags and incubated for at 37° C. for 6 days. At that time, alamar Blue, diluted in Tween 80, was added to each well followed by further incubation for about 20 hours. The plates were read in an optical microplate reader programmed to subtract absorbance at 600 nm from absorbance at 570 nm. This effectively blanked out turbidity and absorbance due to oxidized dye. The amount of dye reduced, resulting in a change from blue to red, is indicative of drug yielding a differential absorption of zero or less.

Assay [2] deals with M. tuberculosis H37Ra. In words: MIC and MBC determination using 2-fold dilutions. The following applies: for MBC / MIC: Mycobacterium tuberculosis.
For assay [3], the system named is H37Rv strain of M. tuberculosis. In words: BACTEC 460 radiometric system in BACTEC 12B medium: inhibition and MIC. The following applies: for MIC: lowest concentration inhibiting 99% of the inoculum.
Setting [4] is: Mycobacterium tuberculosis, H37RA, read-out: MIC.
Where [5] appears, read: Mycobacterium tuberculosis, H37RA.

≈ marks a conversion by molar mass, not a printed value. Like-named read-outs stand apart in the source and are kept apart here.

As usually defined, the MIC is the lowest concentration found to suppress growth. Consider `CCCc1cc(=O)oc2c(C(=O)CC)c(OCCO)c3c(c12)OC(C)(C)CC3` [Compound 44k], for which the MIC in assay [1] was greater than 128 µg/mL.
For `CCCc1cc(=O)oc2c(C(=O)CC)c(O)c3c(c12)OC(C)(C)CC3` [Compound 44a, 5-Hydroxy-2,2-dimethyl-6-propionyl-10-propyl-3,4-dihydro-2H-pyrano[2,3-f]chromen-8-one], the MIC in assay [1] (setting [4]) was greater than 128 µg/mL.
In the case of `CCCc1cc(=O)oc2c(C(=O)CC)c(OCCO)c3c(c12)OC(C)(C)CC3` [Compound 44e, 5-(2-Hydroxyethoxy)-2,2-dimethyl-6-propionyl-10-propyl-3,4-dihydro-2H-pyrano[2,3-f]chromen-8-one], the MIC in assay [1] (setting [4]) fell in the range of 12.8 to 128 µg/mL (≈ 33 to 330 µM).
On the same count and under the same terms, the result for `CCCc1cc(=O)oc2c(C(=O)CC)c3c(c(OCC)c12)C=CC(C)(C)O3` [Compound 48] reads 12.8 to 128 µg/mL (≈ 34.6 to 346 µM).
The MBC is the lowest tested concentration that kills the bacteria rather than only halting them. Regarding `C=CCOc1cc2c(c3oc(=O)cc(CCC)c13)C(O)C(C)C(C)O2` (stereo not drawn) [cis-17c, 5-(Allyloxy)-10-hydroxy-8,9-dimethyl-4-propyl-9,10-dihydro-8H-pyrano[2,3-f]chromen-2-one], the “effect on M. tuberculosis” value in assay [2] is recorded as “bactericidal”. In assay [2] (H37RA), this compound had an MBC of 64 µg/mL (≈ 186 µM) and an MIC of 16 µg/mL (≈ 46.5 µM).
Regarding `C=C(C)COc1cc2c(c3oc(=O)cc(CCC)c13)C(O)C(C)C(C)O2` (stereo not drawn) [trans-17g, 5-(2-Methylallyloxy)-10-hydroxy-8,9-dimethyl-4-propyl-9,10-dihydro-8H-pyrano[2,3-f]chromen-2-one], the MIC in assay [1] was greater than 128 µg/mL.
As for `CCCc1cc(=O)oc2c3c(cc(OC)c12)OC(C)C(C)C3O` (stereo not drawn) [cis-17b, 5-Methoxy-10-hydroxy-8,9-dimethyl-4-propyl-9,10-dihydro-8H-pyrano[2,3-f]chromen-2-one], the MIC in assay [1] is greater than 128 µg/mL.
For `CCCc1cc(=O)oc2c(C(CC)NCC)c(OC)c3c(c12)OC(C)(C)C=C3.Cl` (stereo not shown) [Compound 45g, 6-(1-Ethylaminopropyl)-5-methoxy-2,2-dimethyl-10-propyl-2H-pyrano[2,3-f]chromen-8-one, hydrochloride], the minimum inhibitory concentration (MIC) in assay [1] (setting [4]) is 12.8 to 128 µg/mL.
Take `CCCc1cc(=O)oc2c(C(=O)CC)c(O)c3c(c12)OC(C)(C)C=C3` [Compound 30, 5-hydroxy-2,2-dimethyl-6-propionyl-10-propyl-2H-pyrano[2,3-f]chromen-8-one]: the MIC in assay [1] (setting [4]) was greater than 128 µg/mL.
In the case of `CCCc1cc(=O)oc2c(C(O)CC)c(OC)c3c(c12)OC(C)(C)CC3` (stereo not shown) [Compound 12b, 6-(1-Hydroxypropyl)-5-methoxy-2,2-dimethyl-10-propyl-3,4-dihydro-2H-pyrano[2,3-f]chromen-8-one], in assay [1] (setting [5]), the minimum inhibitory concentration (MIC) is 12.8 to 128 µg/mL (≈ 35.5 to 355 µM).
With `CCCc1cc(=O)oc2c(C(=O)CC)c(OCCN3CCOCC3)c3c(c12)OC(C)(C)CC3` [2,2-Dimethyl-5-(2-morpholin-4-yl-ethoxy)-6-propionyl-10-propyl-3,4-dihydro-2H-pyrano[2,3-f]-chromen-8-one], the MIC in assay [1] (setting [4]) was greater than 128 µg/mL.
As for `CCCc1cc(=O)oc2c(C(=O)CC)c(OC)cc(OC)c12` [Compound 43b, 5,7-Dimethoxy-8-propionyl-4-propyl-chromen-2-one], the MIC in assay [1] (setting [4]) was greater than 128 µg/mL.
In general, % Inhibition refers to the percentage by which the read-out fell short of the control. Read a high % Inhibition as strong suppression. On to `CCCc1cc(=O)oc2c3c(c4c(c12)OC(C)(C)C=C4)O[C@H](C)[C@H](C)C3=O` [(+)-Calanolide D (8), (+)-Calanolide D], for which, in assay [3] (12.5 μg/mL), the “% Inhibition” value is reported as 57%. Besides, in assay [3], the MIC is greater than 12.5 µg/mL.
For `CCCc1cc(=O)oc2c(C(=O)CC)c(OC)c3c(c12)OC(C)(C)C=C3` [Compound 31b, 5-Methoxy-2,2-dimethyl-6-propionyl-10-propyl-2H-pyrano[2,3-f]chromen-8-one], in assay [1] (setting [4]), the MIC was in the range of 12.8 to 128 µg/mL (≈ 35.9 to 359 µM).
As to `CCCc1cc(=O)oc2c(C(=O)CC)c(OC(C)C)c3c(c12)OC(C)(C)CC3` [Compound 44h, 5-Isopropoxy-2,2-dimethyl-6-propionyl-10-propyl-3,4-dihydro-2H-pyrano[2,3-f]chromen-8-one], in assay [1] (setting [4]), the MIC was greater than 128 µg/mL.
Regarding `CCCc1cc(=O)oc2c(C(O)CC)c(O)c3c(c12)OC(C)(C)C=C3` (stereo not shown) [Compound 11a, 5-Hydroxy-6-(1-hydroxypropyl)-2,2-dimethyl-10-propyl-2H-pyrano[2,3-f]chromen-8-one], the MIC in assay [1] (setting [4]) fell in the range of 12.8 to 128 µg/mL (≈ 37.2 to 372 µM).
Turning to “7,8-Dihydrosoulattrolide [7,8-Dihydrosoulattrolide (5)]”, the “% Inhibition” value in assay [3] (12.5 μg/mL) turned out to be 99%. In assay [3], the MIC is 6.25 µg/mL.
For `CCCc1cc(=O)oc2c3c(c4c(c12)OC(C)(C)CC4)OC(C)C(C)C3=O` (racemic) [(±)-7,8-Dihydro-12-Oxocalanolide A (7), (±)-7,8-Dihydro-12-Oxocalanolide A], in that order: 43% and greater than 12.5 µg/mL.
On to `CCCc1cc(=O)oc2c3c(c4c(c12)OC(C)(C)C=C4)O[C@@H](C)[C@H](C)[C@@H]3O` [(−)-Calanolide B (3), (−)-Calanolide B], for which the “% Inhibition” value in assay [3] (12.5 μg/mL) was 99%. Besides, the MIC in assay [3] came to 6.25 µg/mL (≈ 16.9 µM).
With `CCCc1cc(=O)oc2c(C(=O)CC)c(OCCO)c3c(c12)OC(C)(C)C=C3` [Compound 31e, 5-(2-Hydroxy-ethoxy)-2,2-dimethyl-6-propionyl-10-propyl-2H-pyrano[2,3-f]chromen-8-one], in assay [1] (setting [4]), the MIC was 12.8 to 128 µg/mL (≈ 33.1 to 331 µM).
In turn, `C=CCOc1cc2c(c3oc(=O)cc(CCC)c13)C(O)C(C)C(C)O2` (stereo not drawn) [trans-17c, 5-(Allyloxy)-10-hydroxy-8,9-dimethyl-4-propyl-9,10-dihydro-8H-pyrano[2,3-f]chromen-2-one] registered an MIC in assay [1] greater than 128 µg/mL.
One may read the inhibition as the relative decrease from the control value, in per cent. A high value points to strong suppression. For `C[C@H]1[C@H](C)Oc2c3c(c4c(-c5ccccc5)cc(=O)oc4c2[C@H]1O)OC(C)(C)C=C3` [Soulattrolide (4), Soulattrolide], in assay [3] (Mycobacterium tuberculosis, 12.5 μg/mL), the inhibition at 12.5 µg/mL came to 99%. Moreover, in assay [3] (Mycobacterium tuberculosis, read-out: MIC), the MIC was 3.13 µg/mL (≈ 7.74 µM).
Regarding `CCCc1cc(=O)oc2c(C(O)CC)c(OCCO)c3c(c12)OC(C)(C)C=C3` (stereo not shown) [Compound 11e, 5-(2-Hydroxyethoxy)-6-(1-hydroxypropyl)-2,2-dimethyl-10-propyl-2H-pyrano[2,3-f]chromen-8-one], the MIC in assay [1] (setting [4]) lay in the range of 12.8 to 128 µg/mL (≈ 33 to 330 µM).
`CCCc1cc(=O)oc2c(C(O)CC)c(OC)c3c(c12)OC(C)(C)C=C3` (stereo not shown) [Compound 11b, 6-(1-Hydroxypropyl)-5-methoxy-2,2-dimethyl-10-propyl-2H-pyrano[2,3-f]chromen-8-one] registered an MIC in assay [1] (setting [5]) of 12.8 to 128 µg/mL (≈ 35.7 to 357 µM).
As for `CCCc1cc(=O)oc2c(C(=O)CC)c3c(c(O)c12)C=CC(C)(C)O3` [Compound 47], the MIC in assay [1] (setting [4]) fell in the range of 12.8 to 128 µg/mL (≈ 37.4 to 374 µM).
`CCCc1cc(=O)oc2c(C(=O)CC)c(CC(=O)OCC)c3c(c12)OC(C)(C)CC3` [Compound 44i, 5-Ethoxycarbonylmethyl-2,2-dimethyl-6-propionyl-10-propyl-3,4-dihydro-2H,8H-pyrano[2,3-f]chromen-8-one]: in assay [1] (setting [5]), the minimal inhibitory concentration (MIC) was greater than 128 µg/mL.
In assay [1], `C#CCOc1cc2c(c3oc(=O)cc(CCC)c13)C(O)C(C)C(C)O2` (stereo not drawn) [Compound trans-17d, 5-(Prop-2-ynyloxy)-10-hydroxy-8,9-dimethyl-4-propyl-9,10-dihydro-8H-pyrano[2,3-f]chromen-2-one] gave a minimum inhibitory concentration (MIC) greater than 128 µg/mL.
As to `CCCc1cc(=O)oc2c3c(c4c(c12)OC(C)(C)C=C4)O[C@H](C)[C@@H](C)C3=O` [(+)-12-Oxocalanolide A (6), (+)-12-Oxocalanolide A], in assay [3] (12.5 μg/mL), the “% Inhibition” value stood at 78%. The compound further gave an MIC in assay [3] greater than 12.5 µg/mL.
Regarding `CCCc1cc(=O)oc2c(C(O)CC)c(OCCO)c3c(c12)OC(C)(C)CC3` (stereo not shown) [Compound 12e, 5-(2-Hydroxyethoxy)-6-(1-hydroxypropyl)-2,2-dimethyl-10-propyl-3,4-dihydro-2H-pyrano[2,3-f]chromen-8-one], the MIC in assay [1] (setting [4]) lay in the range of 12.8 to 128 µg/mL (≈ 32.8 to 328 µM).
`C=CC(C)Oc1cc2c(c3oc(=O)cc(CCC)c13)C(O)C(C)C(C)O2` (stereo not drawn) [cis-17f, 5-(1-Methylallyloxy)-10-hydroxy-8,9-dimethyl-4-propyl-9,10-dihydro-8H-pyrano[2,3-f]chromen-2-one]: in assay [2] (2-fold dilutions, lowest concentration that completely inhibits growth, H37Ra, read-out: MIC), the MIC came to 16 µg/mL (≈ 44.6 µM). For the same compound, the MBC in assay [2] (minimum bactericidal concentration, H37Ra, read-out: MBC) was greater than 64 µg/mL.
`CCCc1cc(=O)oc2c3c(c4c(c12)OC(C)(C)C=C4)O[C@H](C)[C@@H](C)C3=O` (racemic) [(±)-6]: in assay [3] (12.5 μg/mL), the “% Inhibition” value is 59%. For the same compound, the MIC in assay [3] is greater than 12.5 µg/mL.
As for `CCCc1cc(=O)oc2c(C(O)CC)c(O)c3c(c12)OC(C)(C)CC3` (stereo not shown) [Compound 12a, 5-Hydroxy-6-(1-hydroxypropyl)-2,2-dimethyl-10-propyl-3,4-dihydro-2H-pyrano[2,3-f]chromen-8-one], the MIC in assay [1] (setting [4]) lay within 12.8 to 128 µg/mL (≈ 36.9 to 369 µM).
With `CCCc1cc(=O)oc2c(C(N)CC)c(O)c3c(c12)OC(C)(C)C=C3` (stereo not shown) [Compound 45a, 6-(1-Aminopropyl)-5-hydroxy-2,2-dimethyl-10-propyl-2H-pyrano[2,3-f]chromen-8-one], the MIC in assay [1] (setting [4]) was 12.8 to 128 µg/mL (≈ 37.3 to 373 µM).
